What was measured:
[1] = system: YAP/TAZ-TEAD transcription; test: Reporter gene assay for measuring the inhibition of YAP/TAZ-TEAD transcription (TEAD-responsive element luciferase reporter in Hek293T cells); type: cell-based; details: Homo sapiens, HEK-293T, 24 hours incubation
How it was run: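 Hek293T cells transiently transfected with a TEAD-responsive element luciferase reporter were plated onto compounds and incubated 24 h at 37 °C/5% CO2. SteadyLite luminescence gave percent inhibition, normalised to vehicle (0%) and positive control inhibitor (100%); EC50 derived.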

NCI-H226 = test: Mesothelioma cell line proliferation assay (ATPlite), NCI-H226; type: cell-based; details: Homo sapiens, 144 h; NCI-H226 cells, 6 days, ATPlite cell viability
How it was run: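 Mesothelioma cells seeded at 1500 cells/well in RPMI 1640 with 10% FBS, incubated overnight, then treated with compound dose-response in DMSO for 6 days at 37° C, 5% CO2. Viability read by ATPlite luminescence; percent inhibition used to derive EC50.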

H2452 = test: Mesothelioma cell line proliferation assay, H2452; type: cell-based; details: Homo sapiens, NCI-H2452; H2452 cells
YAP = details: mouse models of YAP-driven tumorigenesis; cited from earlier work
[2] = system: NF2 mutant mesothelioma cell lines; details: NF2 mutant mesothelioma cell lines (but not WT mesothelioma); cited from earlier work

Molecule	EC50 [1]	EC50 (NCI-H226)	EC50 (H2452)	suppression of the oncogenic activity of YAP (YAP)	sensitivity of YAP-TEAD transcription [2]	sensitivity of viability [2]
CNS(=O)(=O)CCNc1ccc(-c2ccc(F)cc2)cc1-c1ccn(Cc2cccnc2)n1 [compound 086, 2-((4′-fluoro-3-(1-(pyridin-3-ylmethyl)-1H-pyrazol-3-yl)-[1,1′-biphenyl]-4-yl)amino)-N-methylethane-1-sulfonamide]	< 1 µM	1 to 10 µM	> 10 µM	–	–	–
CNS(=O)(=O)CCNc1ccc(-c2ccc(C(F)(F)F)cc2)cc1-c1ccn(Cc2cccnc2)n1 [compound 087, N-methyl-2-((3-(1-(pyridin-3-ylmethyl)-1H-pyrazol-3-yl)-4′-(trifluoromethyl)-[1,1′-biphenyl]-4-yl)amino)ethane-1-sulfonamide]	< 1 µM	1 to 10 µM	> 10 µM	–	–	–
CNS(=O)(=O)CCNc1ccc(-c2ccc(F)cc2)cc1-c1ccn(C)n1 [compound 117, 2-((4′-fluoro-3-(1-methyl-1H-pyrazol-3-yl)-[1,1′-biphenyl]-4-yl)amino)-N-methylethane-1-sulfonamide]	< 1 µM	> 10 µM	> 10 µM	–	–	–
CNS(=O)(=O)CCNc1ccc(-c2cccc(F)c2)cc1-c1ccn(C)n1 [compound 119, 2-((3′-fluoro-3-(1-methyl-1H-pyrazol-3-yl)-[1,1′-biphenyl]-4-yl)amino)-N-methylethane-1-sulfonamide]	< 1 µM	> 10 µM	> 10 µM	–	–	–
verteporfin	–	–	–	significantly suppressed the oncogenic activity of YAP	sensitive	sensitive

Second part, led by results:

EC50 [1]	EC50 (NCI-H226)	EC50 (H2452)	Molecule	suppression of the oncogenic activity of YAP (YAP)	sensitivity of YAP-TEAD transcription [2]	sensitivity of viability [2]
< 1 µM	< 1 µM	> 10 µM	CNS(=O)(=O)CCNc1ccc(-c2ccc(F)c(F)c2)cc1-c1ccn(Cc2cccnc2)n1 [compound 093, 2-((3′,4′-difluoro-3-(1-(pyridin-3-ylmethyl)-1H-pyrazol-3-yl)-[1,1′-biphenyl]-4-yl)amino)-N-methylethane-1-sulfonamide]	–	–	–
< 1 µM	> 10 µM	> 10 µM	CNS(=O)(=O)CCNc1ccc(-c2ccccc2)cc1-c1ccn(Cc2ccccc2)n1 [compound 102, 2-((3-(1-benzyl-1H-pyrazol-3-yl)-[1,1′-biphenyl]-4-yl)amino)-N-methylethane-1-sulfonamide]	–	–	–
< 1 µM	1 to 10 µM	> 10 µM	CNS(=O)(=O)CCNc1ccc(-c2ccc(C(F)(F)F)cc2)cc1-c1ccn(C)n1 [compound 118, N-methyl-2-((3-(1-methyl-1H-pyrazol-3-yl)-4′-(trifluoromethyl)-[1,1′-biphenyl]-4-yl)amino)ethane-1-sulfonamide]	–	–	–
< 1 µM	1 to 10 µM	> 10 µM	CNS(=O)(=O)CCNc1ccc(-c2ccc(F)c(F)c2)cc1-c1ccn(C)n1 [compound 124]	–	–	–
